Assay results from paper PMC8398451, “Molecular Engineering of Curcumin, an Active Constituent of Curcuma longa L. (Turmeric) of the Family Zingiberaceae with Improved Antiproliferative Activity” (Plants, 2021).
Where two headings read alike, the source gives them in different places.

Tests used:
[1] = tested on: 60 NCI cancer cell lines; assay: NCI antiproliferative assay, summary over all lines; type: cell-based
[2] = tested on: A498; assay: NCI antiproliferative SRB assay, Renal Cancer panel; type: cell-based, Human
[3] = tested on: IGROV1; assay: NCI antiproliferative SRB assay, Ovarian Cancer panel; type: cell-based, Human
[4] = tested on: SK-OV-3; assay: as above; type: cell-based, Human
[5] = tested on: Prostate Cancer cell line panel; assay: NCI antiproliferative assay, panel summary; type: cell-based, Human
[6] = tested on: NCI-H23; assay: NCI antiproliferative SRB assay, Non-Small Cell Lung Cancer panel; type: cell-based, Human
[7] = tested on: A549/ATCC; assay: as above; type: cell-based, Human
[8] = tested on: SR; assay: NCI antiproliferative SRB assay, Leukemia panel; type: cell-based, Human; conditions: 5-dose 0.01-100 µM
[9] = tested on: MDA-MB-468; assay: NCI antiproliferative SRB assay, Breast Cancer panel; type: cell-based, Human
Procedure: The antiproliferative activity of tested compounds was done against five dozen (60) cancer cell lines derived from nine different panels. All of the compounds were evaluated for antiproliferative activity in a single dose at 10 µM. Growth percent (GP) and percent growth inhibition (% GI) were used to calculate antiproliferative activity. […] The antiproliferative results of five-dose assay were calculated as three dose related parameters like, 50% growth inhibition (GI50), 50% lethal concentration (LC50), and total growth inhibition TGI [43, 44, 45, 46, 47].
Human tumor cell lines were grown in RPMI 1640 medium containing 5% fetal bovine serum and 2 mM L-glutamine. For a typical screening experiment, cells were inoculated into 96-well microtiter plates in 100 µL at plating densities ranging from 5000 to 40,000 cells/well, depending on the doubling time of individual cell lines. Two plates of each cell line were fixed in situ with trichloroacetic acid (TCA) after 24 h to represent a cell population measurement for each cell line at the time of drug addition (Ti). The experimental drugs were frozen after being solubilized in dimethyl sulfoxide at 400-fold the desired final maximum test concentration. An aliquot of frozen concentrate was thawed and diluted to twice the desired final maximum test concentration with medium containing 50 µg/mL gentamicin at the time of drug addition. Additional four, 10-fold, or ½ log serial dilutions serial dilutions were performed to provide a total of five drug concentrations plus the control. Aliquots of 100 µL of these different drug dilutions were added to the appropriate microtiter wells already containing 100 µL of medium, resulting in the required final drug concentrations. Following drug addition, the plates are incubated for an additional 48 h at 37 °C, 5% CO2, 95% air, and 100% relative humidity. For adherent cells, the assay is terminated by the addition of cold TCA. Cells are fixed in situ by the gentle addition of 50 µL of cold 50% (w/v) TCA (final concentration, 10% TCA) and incubated for 60 min at 4 °C. The supernatant is discarded, and the plates are washed five times with tap water and air dried. Sulforhodamine B (SRB) solution (100 µL) at 0.4% (w/v) in 1% acetic acid was added to each well, and plates were incubated for 10 min at room temperature. After staining, unbound dye was removed by washing five times with 1% acetic acid and the plates were air dried. Bound stain was subsequently solubilized with 10 mM trizma base, and the absorbance was read on an automated plate reader at a wavelength of 515 nm. For suspension cells, the methodology was the same except that the assay was terminated by fixing settled cells at the bottom of the wells by gently adding 50 µL of 80% TCA (final concentration, 16% TCA). […]
Antiproliferative activity
The anticancer screening was carried ou t as per the NCI US protocol. Using the seven absorbance measurements (time zero, (Ti), control growth, (C), and test growth in the presence of drug at the five concentration levels (Tf)), the percentage growth was calculated at each of the drug concentrations level as [( Tf−Ti × 100 for concentrations for which Tf ≥ Ti, and Tf−Ti × 100 for […]
concentrations for which Tf < Ti.
Three-dose response parameters (GI50, TGI, and LC50) were calculated for each of the experimental agents. Growth inhibition of 50% (GI50) was calculated from 100 × Tf−Ti = 50, , which was […]
the drug concentration resulting in a 50% reduction in the net protein increase (as measured by sulforhodamine B, SRB staining) in control cells during the drug incubation. The total growth inhibition (TGI) was calculated from Tf = Ti, which was the drug concentration resulting in total growth inhibition and signified the cytostatic effect. The LC50 was calculated from 100 × Tf−Ti = −50, , indicating a net loss […]
of cells following treatment which indicated the concentration of drug resulting in a 50% reduction in the […]

[10] = tested on: Colon Cancer cell line panel; assay: NCI antiproliferative assay, panel summary; type: cell-based, Human
[11] = tested on: HCT-116; assay: NCI antiproliferative SRB assay, Colon Cancer panel; type: cell-based, Human
[12] = tested on: KM12; assay: as above; type: cell-based, Human
[13] = tested on: Melanoma cell line panel; assay: NCI antiproliferative assay, panel summary; type: cell-based, Human
[14] = tested on: HCC-2998; assay: NCI antiproliferative SRB assay, Colon Cancer panel; type: cell-based, Human
[15] = tested on: NCI-H322M; assay: NCI antiproliferative SRB assay, Non-Small Cell Lung Cancer panel; type: cell-based, Human
[16] = tested on: SNB-19; assay: NCI antiproliferative SRB assay, CNS Cancer panel; type: cell-based, Human
[17] = mean over cell lines, one dose 10 µM
[18] = Homo sapiens, 5-dose 0.01-100 µM
[19] = Homo sapiens, 5-dose 0.01-100 µM, read-out: LC50 (the source's name)
[20] = Homo sapiens, 5-dose assay, read-out: Sub Panel MID b (mean GI50 of panel)

## COc1ccc(NC(=O)n2nc(/C=C/c3ccc(O)c(OC)c3)cc2/C=C/c2ccc(O)c(OC)c2)cc1 [3b]
[1]; Homo sapiens, read-out: GI50 values, range over cell lines
  GI50: 1.25 to 18.8 µM
[1]; Homo sapiens, 5-dose assay, read-out: LC50 over cell lines
  CC50: > 100 µM
[1]; Homo sapiens, 5-dose assay, read-out: MID a (mean GI50 of 60 NCI cancer cell lines)
  GI50: 4.89 µM
[1]; [17]
  Mean % GI: 66.46%
  Mean GP: 33.54
[2]; 5-dose 0.01-100 µM
  TGI: 56.4 µM
[2]; [18]
  GI50: 17.2 µM
[2]; [19]
  CC50: > 100 µM
[2]; one dose 10 µM
  %GI: 17.53%
  GP (growth percent): 82.47
[3]; 5-dose 0.01-100 µM
  TGI: 57.0 µM
[3]; Homo sapiens, IGROV-1, 5-dose 0.01-100 µM
  GI50: 4.49 µM
[3]; Homo sapiens, IGROV-1, 5-dose 0.01-100 µM, read-out: LC50 (the source's name)
  CC50: > 100 µM
[3]; one dose 10 µM
  %GI: 65.61%
  GP (growth percent): 34.39
[4]; 5-dose 0.01-100 µM
  TGI: 27.5 µM
[4]; [18]
  GI50: 3.66 µM
[4]; [19]
  CC50: > 100 µM
[4]; one dose 10 µM
  %GI: 39.26%
  GP (growth percent): 60.74
[5]; 10 µM
  Mean % GI: 72.17%
[5]; 5-dose assay
  Selectivity Ratio (MID a:MID b): 1.07
[5]; [20]
  GI50: 4.55 µM
[6]; 5-dose 0.01-100 µM
  TGI: 63.8 µM
[6]; [18]
  GI50: 3.81 µM
[6]; [19]
  CC50: > 100 µM
[6]; one dose 10 µM
  %GI: 56.06%
  GP (growth percent): 43.94
[7]; 5-dose 0.01-100 µM
  TGI: 97.9 µM
[7]; [18]
  GI50: 5.5 µM
  LC50 (50% lethal concentration): > 100 µM
[7]; one dose 10 µM
  %GI: 72.71%
  GP (growth percent): 27.29
[8]
  TGI: 12.8 µM
[8]; Homo sapiens
  GI50: 1.52 µM
[8]; Homo sapiens, read-out: LC50 (the source's name)
  CC50: > 100 µM
[9]; Homo sapiens, MDA-MB-468, read-out: LC50
  LC50 (50% lethal concentration): > 100 µM
[9]; Homo sapiens, MDA-MB-468, 5-dose 0.01-100 µM
  GI50: 3.55 µM
[9]; MDA-MB-468, 5-dose 0.01-100 µM
  TGI: 21.6 µM
[9]; MDA-MB-468, one dose 10 µM
  %GI: 65.32%
  GP (growth percent): 34.68
[10]; 10 µM
  Mean % GI: 60%
[10]; 5-dose assay
  Selectivity Ratio (MID a:MID b): 0.85
[10]; [20]
  GI50: 5.77 µM
[11]; 5-dose 0.01-100 µM
  TGI: 42.9 µM
[11]; [18]
  GI50: 3.22 µM
[11]; [19]
  CC50: > 100 µM
[11]; one dose 10 µM
  %GI: 90.87%
  GP (growth percent): 9.13
[12]; 5-dose 0.01-100 µM
  TGI: 20.7 µM
[12]; [18]
  GI50: 3.19 µM
[12]; [19]
  CC50: > 100 µM
[12]; one dose 10 µM
  %GI: 82.11%
  GP (growth percent): 17.89
[13]; 10 µM
  Mean % GI: 76.24%
[13]; 5-dose assay
  Selectivity Ratio (MID a:MID b): 1.06
[13]; [20]
  GI50: 4.59 µM
[14]; 5-dose 0.01-100 µM
  TGI: >100 µM
[14]; [18]
  GI50: 5.78 µM
[14]; [19]
  CC50: > 100 µM
[14]; one dose 10 µM
  %GI: 25.09%
  GP (growth percent): 74.91
[15]; 5-dose 0.01-100 µM
  TGI: 72.5 µM
[15]; [18]
  GI50: 3.87 µM
[15]; [19]
  CC50: > 100 µM
[15]; one dose 10 µM
  %GI: 41.86%
  GP (growth percent): 58.14
[16]; 5-dose 0.01-100 µM
  TGI: 86.7 µM
[16]; [18]
  GI50: 5.28 µM
[16]; [19]
  CC50: > 100 µM
[16]; one dose 10 µM
  %GI: 61.15%
  GP (growth percent): 38.85
